Results on one compound are retold here after ChEMBL document CHEMBL1255241, “Novel characteristics of community-acquired methicillin-resistant Staphylococcus aureus strains belonging to multilocus sequence type 59 in Taiwan” (2008).

Molecules are shown by their SMILES. ≈ marks a conversion by molar mass, not a printed value. Some results are limits rather than exact numbers.

Type in all cases: functional
Assay [1] deals with Staphylococcus aureus. Briefly: Antibacterial activity against group 5 PVL negative community-acquired methicillin-resistant Staphylococcus aureus ST 5 expressing SCCmec type II gene by agar dilution method. On the technique in general: In agar dilution the substance is mixed into plates at graded concentrations.
The subject of assay [2] is Staphylococcus aureus. The experiment in a line: Antibacterial activity against group 4-v1 PVL negative community-acquired methicillin-resistant Staphylococcus aureus ST 59 expressing SCCmec type X gene by agar dilution method.
In assay [3] the test system is Staphylococcus aureus. Briefly: Antibacterial activity against group 4 PVL negative community-acquired methicillin-resistant Staphylococcus aureus ST 59 expressing SCCmec type IVx gene by agar dilution method.
Assay [4] deals with Staphylococcus aureus. The experiment in a line: Antibacterial activity against group 3 PVL negative community-acquired methicillin-resistant Staphylococcus aureus ST 239 expressing SCCmec type III gene by agar dilution method.
Assay [5] concerns Staphylococcus aureus. Briefly: Antibacterial activity against group 1-v4 PVL+ community-acquired methicillin-resistant Staphylococcus aureus ST 59 expressing SCCmec type VT gene by agar dilution method.
Assay [6] has as its system Staphylococcus aureus. The experiment in a line: Antibacterial activity against group 6 PVL negative community-acquired methicillin-resistant Staphylococcus aureus ST 8 expressing SCCmec type IVx gene by agar dilution method.
For assay [7], the system named is Staphylococcus aureus. Briefly: Antibacterial activity against group 3-v1 PVL negative community-acquired methicillin-resistant Staphylococcus aureus ST 900 expressing SCCmec type III gene by agar dilution method.
Assay [8] has as its system Staphylococcus aureus. Briefly: Antibacterial activity against group 1-v3 PVL+ community-acquired methicillin-resistant Staphylococcus aureus ST 59 expressing SCCmec type V gene by agar dilution method.
Assay [9] has as its system Staphylococcus aureus. Briefly: Antibacterial activity against group 1 PVL+ community-acquired methicillin-resistant Staphylococcus aureus ST 59 expressing SCCmec type VT gene by agar dilution method.
For assay [10], the system named is Staphylococcus aureus. Briefly: Antibacterial activity against group 4-v2 PVL negative community-acquired methicillin-resistant Staphylococcus aureus ST 59 expressing SCCmec type IVx gene by agar dilution method.
Assay [11] concerns Staphylococcus aureus. The experiment in a line: Antibacterial activity against group 1-v1 PVL+ community-acquired methicillin-resistant Staphylococcus aureus ST 59 expressing SCCmec type V gene by agar dilution method.
In assay [12] the test system is Staphylococcus aureus. The experiment in a line: Antibacterial activity against group 4-v3 PVL negative community-acquired methicillin-resistant Staphylococcus aureus ST 59 expressing SCCmec type IVc gene by agar dilution method.
Assay [13] has as its system Staphylococcus aureus. The experiment in a line: Antibacterial activity against group 1-v2 PVL+ community-acquired methicillin-resistant Staphylococcus aureus ST 59 expressing SCCmec type X gene by agar dilution method.
For assay [14], the system named is Staphylococcus aureus. The experiment in a line: Antibacterial activity against group 2 PVL+ community-acquired methicillin-resistant Staphylococcus aureus ST 30 expressing SCCmec type IVc gene by agar dilution method.

In the case of `Cc1onc(-c2ccccc2)c1C(=O)N[C@@H]1C(=O)N2[C@@H]1SC(C)(C)[C@@H]2C(=O)O` [OXACILLIN], the MIC (in general, the lowest concentration found to suppress growth) in assay [1] was at least 128 µg/mL; in assay [2], 32 µg/mL (≈ 79.7 µM); in assay [3], at least 128 µg/mL; in assay [4], at least 128 µg/mL; in assay [5], 4 µg/mL (≈ 9.96 µM); in assay [6] it was 32 µg/mL (≈ 79.7 µM). Besides, the MIC in assay [7] was at least 128 µg/mL; in [8], 4 µg/mL (≈ 9.96 µM); in assay [9] it was 32 µg/mL (≈ 79.7 µM); in assay [10], 64 µg/mL (≈ 159 µM); in [11] it was 64 µg/mL (≈ 159 µM); in assay [12], 32 µg/mL (≈ 79.7 µM). Also, the MIC in assay [13] stood at 64 µg/mL (≈ 159 µM); in assay [14], 32 µg/mL (≈ 79.7 µM).
